Entries after “also recorded” stand apart in the source; their conditions may differ.
How the values were obtained:
[1] = test system: rats (polytrauma with 40% hemorrhage); assay: HOE140 on tissue wet/dry weight ratio after polytrauma with 40% hemorrhage and lactated Ringer's resuscitation (FIG. 12); type: in vivo; details: for wet/dry weight ratio, brain: HOE140 0.4 mg/kg i.v. bolus 45 min after trauma, tissues 1 hour after resuscitation, vehicle 4.735±0.024
Procedure: FIG. 12. The effect of bradykinin receptor antagonist (HOE140) on tissue water content/vascular permeability in the brain, lung and skeletal muscle after polytrauma/hemorrhage and resuscitation of lactate Ringer's fluid (20% of Blood Volume). HOE140 or vehicle were given intravenously in rats (n=4/group) at 45 min after trauma (15 min prior to resuscitation of lactate Ringer's fluid). The tissues were harvested 2 hours after trauma. Values represent as means±SD. *:p<0.05 as compared with vehicle.
HOE140 (0.4 mg/kg) was administrated as a bolus intravenously at 45 min after trauma (15 min prior to Lactated Ringer's fluid resuscitation). At 1 hour after resuscitation, the rats were euthanized and the tissues were harvested for wet weight, and then transferred into the oven at 60° C. for 14 days to be weighed as dry weight. The wet/dry ratio represented the water content of the tissue.
Icatibant (HOE140), which is a selective competitive antagonist at the bradykinin type 2 (B2) receptor, is a synthetic decapeptide with a structure similar to bradykinin, but with 5 nonproteinogenic amino acids. It consists of ten amino acids in the following sequence: H-D-Arg-Arg-Pro-Hyp-Gly-Thi-Ser-D-Tic-Oic-Arg-OH. HOE140 (0.4 mg/kg in lactate Ringer's fluid) was administrated as a bolus intravenously at 45 min after trauma (15 min prior to lactated Ringer's fluid resuscitation (20% of Blood Volume)). At 1 hour after resuscitation, the rats were euthanized and the tissues were harvested for wet weight, and then transferred into the oven at 60° C. for 14 days to be weighed as dry weight. The wet/dry ratio represented the water content of the tissue.

[2] = test system: rats with polytrauma and hemorrhage; assay: TXA in polytrauma/hemorrhage (FIG. 11); type: in vivo
Procedure: FIG. 11. The effect of anti-fibrinolytic agent (tranexamic acid; TXA) on polytrauma/hemorrhage. Single dose of TXA (10 mg/kg) given prior to trauma. (FIG. 11A) Prothrombin time. Values represent as means±SEM. *:p<0.05, significant difference between TXA and Vehicle; #:p<0.05, significant difference as compared with baseline. (FIG. 11B) Lung wet/dry weight ratio. TXA was given just before trauma (BT, red), just after trauma (AT, green) and 45 min after the end of trauma (yellow). Values represent as means±SEM. *:p<0.05, significant difference as compared with vehicle. (FIG. 11C) Acute lung injury. TXA given 45 min after trauma (and 15 min prior to resuscitation). Levels of platelet and leukocytes (neutrophils and monocytes) infiltration, and C5a and neutrophil elastase in the lung as compared with FWB. *:p<0.05, significant difference between FWB and FWB/TXA; #:p<0.05, significant difference as compared with Non-R; $:p<0.05, significant difference as compared with Non-R, FWB and FWB/TXA. Values represent as means±SEM. Non-R: Non-Resuscitation; FWB: Fresh Whole Blood; TXA: Tranexamic Acid; AT: After Trauma; BT: Before Trauma.
Briefly, Sprague-Dawley rats (350-450 gram) were anesthetized with isoflurane/100% oxygen through a nosecone and allowed to breathe spontaneously. Cannulas were placed in the left femoral artery and vein for measurement of arterial blood pressure and to obtain vascular access (blood draw and resuscitation and drug administration) respectively. Polytrauma was induced by laparotomy, crush injury to the small intestines, the […], and the right leg skeletal muscle and by fracture of the right femur. In detail, a midline incision was made through the abdominal skin and underlying muscle layers. A 10-cm section of small intestines was isolated just anterior to the cecum and run gently through a clamp covered with silastic tubing with a 2-mm distance between the clamps to cause a gentle crush injury. The right and medial lobes of the liver will receive three crushes to each lobe using the same clamp. The intestines and liver were replaced, and the abdominal incision was closed with sutures in two layers. To fracture the […], a modification of a 3-point impact device was used by dropping six stainless-steel balls (65 g each) stacked together, from 36 inches through a guide tube (1 inch internal diameter) to impact on a rounded aluminum blade resting on the mid-right femur with the right leg resting on two aluminum stands, one under the hip and one under the knee. A large hemostat (5 in tongs) was used to clamp the muscle of the right leg 10 times. The crush injury was intended to cause microvascular damage, as opposed to cutting, chopping, or mincing of the tissue, which would have led to uncontrolled hemorrhage. The polytrauma was performed about 10 min followed immediately by hemorrhage. Blood volume was estimated as 6% of body weight±0.77. The rats were bled to lower mean arterial pressure to 40 mmHg within 5 min and maintained at 40 mmHg until 40% of estimated blood volume is removed. Hemorrhage is usually completed within 30 min. Hemorrhage was then discontinued, and blood pressure and heart rate will be allowed to freely compensate.
TXA was given just before trauma (BT, red), just after trauma (AT, green) and 45 min after the end of trauma (yellow). […] TXA was given 45 min after trauma (15 min prior to resuscitation).

[3] = TXA 15 min prior to FWB resuscitation at 60 min after trauma
[4] = single dose TXA 10 mg/kg prior to trauma

Structure (SMILES) | tissue wet/dry weight ratio / tissue water content and vascular permeability ([1]; HOE140 0.4 mg/kg i.v.) | wet/dry weight ratio, brain ([1]; n=4) | wet/dry weight ratio, brain ([1]; n=4, 0.4 mg/kg) | tissue wet/dry weight ratio / tissue water content and vascular permeability ([1]; HOE140 0.4 mg/kg i.v., 0.4 mg/kg) | wet/dry weight ratio, traumatized skeletal muscle ([1]; HOE140 0.4 mg/kg i.v., n=4, vehicle 4.491±0.112) | wet/dry weight ratio, intestine ([1]; HOE140 0.4 mg/kg i.v., n=4, vehicle 4.528±0.112) | fluid movement into the lung (ALI, lung wet/dry weight ratio) ([2]; TXA 10 mg/kg just after trauma and 45 min after the end of trauma) | level of C5a in the lung as compared with FWB [2, 3] | level of neutrophil elastase in the lung as compared with FWB [2, 3] | platelet and leukocyte infiltration in the lung as compared with FWB [2, 3] | circulatory plasmin activity ([2]; current study) | prothrombin time (PT) at 30 min after trauma [2, 4] | prothrombin time (PT) at 120 min after trauma [2, 4]
NC(N)=NCCC[C@@H](N)C(=O)N[C@@H](CCCN=C(N)N)C(=O)N1CCC[C@H]1C(=O)N1C[C@H](O)C[C@H]1C(=O)NCC(=O)N[C@@H](Cc1cccs1)C(=O)N[C@@H](CO)C(=O)N1Cc2ccccc2C[C@@H]1C(=O)N1[C@H](C(=O)N[C@@H](CCCN=C(N)N)C(=O)O)C[C@@H]2CCCC[C@@H]21 [Icatibant, H-D-Arg-Arg-Pro-Hyp-Gly-Thi-Ser-D-Tic-Oic-Arg-OH] | attenuated tissue wet/dry weight ratio | 4.674±0.023 | significantly declined | attenuated tissue wet/dry weight ratio; also recorded: reduced | 4.247±0.176 | 4.399±0.090 |  |  |  |  |  |  | 
NC[C@H]1CC[C@H](C(=O)O)CC1 [TXA, tranexamic acid] |  |  |  |  |  |  | reduces fluid movement into the lung | significantly reduced | significantly reduced | significantly reduced | not significantly changed | delayed elevation of prothrombin time | significantly elevated
